Results as given in patent EP4745137A1 (Gluetacs Therapeutics (Shanghai) Co., Ltd., priority 2023, dated 2025).

What was measured:
[1] = test system: Human acute T lymphocytic leukemia cells (Molt-4); assay: Tumor cell proliferation inhibition (CellTiter-Meiluncell Luminescent Cell Viability Assay), Molt-4; conditions: MOLT-4, 96 h, read-out: inhibitory activity (IC50, nM) against tumor cells proliferation, Molt 4
[2] = test system: Jurkat; assay: Tumor cell proliferation inhibition (CellTiter-Meiluncell Luminescent Cell Viability Assay), Jurkat; conditions: Homo sapiens, 96 h, read-out: inhibitory activity (IC50, nM) against tumor cells proliferation, Jurkat
[3] = target: T1, IKZF3 (Homo sapiens, UniProt Q96SW2+Q9UKT9); assay: Western-blot assay of substrate protein degradation in hPBMCs, IKZF3; format: cell-based; conditions: 24 hours of compound treatment, compounds tested at 50 nM and 500 nM (concentration of the table not stated)
T1 construct: endogenous in cells; host or cells: hPBMCs (Milecell Biotechnologies)
T1 sequence (Q9UKT9 whole entry): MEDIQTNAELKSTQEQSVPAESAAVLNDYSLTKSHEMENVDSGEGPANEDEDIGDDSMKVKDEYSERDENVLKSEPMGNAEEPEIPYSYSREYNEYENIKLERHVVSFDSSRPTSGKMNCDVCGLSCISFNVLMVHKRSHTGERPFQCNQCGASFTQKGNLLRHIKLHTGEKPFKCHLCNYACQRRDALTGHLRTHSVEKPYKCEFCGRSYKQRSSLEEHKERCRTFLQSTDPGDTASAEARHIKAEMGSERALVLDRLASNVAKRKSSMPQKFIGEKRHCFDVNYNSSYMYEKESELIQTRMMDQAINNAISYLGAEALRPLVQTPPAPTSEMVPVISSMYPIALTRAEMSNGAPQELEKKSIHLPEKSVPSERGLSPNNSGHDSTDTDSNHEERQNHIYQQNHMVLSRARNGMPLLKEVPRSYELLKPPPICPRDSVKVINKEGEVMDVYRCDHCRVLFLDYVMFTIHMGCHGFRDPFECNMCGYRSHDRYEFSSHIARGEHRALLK
T1 sequence (Q96SW2 whole entry): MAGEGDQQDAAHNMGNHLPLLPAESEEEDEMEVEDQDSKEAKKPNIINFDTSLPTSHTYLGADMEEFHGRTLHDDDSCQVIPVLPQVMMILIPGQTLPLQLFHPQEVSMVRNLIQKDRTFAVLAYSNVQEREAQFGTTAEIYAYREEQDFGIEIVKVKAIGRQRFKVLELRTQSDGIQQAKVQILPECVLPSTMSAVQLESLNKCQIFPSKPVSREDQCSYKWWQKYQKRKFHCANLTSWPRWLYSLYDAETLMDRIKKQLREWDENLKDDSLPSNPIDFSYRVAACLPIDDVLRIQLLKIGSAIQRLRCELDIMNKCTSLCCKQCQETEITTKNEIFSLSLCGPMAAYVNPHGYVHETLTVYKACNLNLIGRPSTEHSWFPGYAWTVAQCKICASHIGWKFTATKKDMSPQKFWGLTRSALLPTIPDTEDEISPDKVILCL
T1 sequence (Q16531 whole entry partner): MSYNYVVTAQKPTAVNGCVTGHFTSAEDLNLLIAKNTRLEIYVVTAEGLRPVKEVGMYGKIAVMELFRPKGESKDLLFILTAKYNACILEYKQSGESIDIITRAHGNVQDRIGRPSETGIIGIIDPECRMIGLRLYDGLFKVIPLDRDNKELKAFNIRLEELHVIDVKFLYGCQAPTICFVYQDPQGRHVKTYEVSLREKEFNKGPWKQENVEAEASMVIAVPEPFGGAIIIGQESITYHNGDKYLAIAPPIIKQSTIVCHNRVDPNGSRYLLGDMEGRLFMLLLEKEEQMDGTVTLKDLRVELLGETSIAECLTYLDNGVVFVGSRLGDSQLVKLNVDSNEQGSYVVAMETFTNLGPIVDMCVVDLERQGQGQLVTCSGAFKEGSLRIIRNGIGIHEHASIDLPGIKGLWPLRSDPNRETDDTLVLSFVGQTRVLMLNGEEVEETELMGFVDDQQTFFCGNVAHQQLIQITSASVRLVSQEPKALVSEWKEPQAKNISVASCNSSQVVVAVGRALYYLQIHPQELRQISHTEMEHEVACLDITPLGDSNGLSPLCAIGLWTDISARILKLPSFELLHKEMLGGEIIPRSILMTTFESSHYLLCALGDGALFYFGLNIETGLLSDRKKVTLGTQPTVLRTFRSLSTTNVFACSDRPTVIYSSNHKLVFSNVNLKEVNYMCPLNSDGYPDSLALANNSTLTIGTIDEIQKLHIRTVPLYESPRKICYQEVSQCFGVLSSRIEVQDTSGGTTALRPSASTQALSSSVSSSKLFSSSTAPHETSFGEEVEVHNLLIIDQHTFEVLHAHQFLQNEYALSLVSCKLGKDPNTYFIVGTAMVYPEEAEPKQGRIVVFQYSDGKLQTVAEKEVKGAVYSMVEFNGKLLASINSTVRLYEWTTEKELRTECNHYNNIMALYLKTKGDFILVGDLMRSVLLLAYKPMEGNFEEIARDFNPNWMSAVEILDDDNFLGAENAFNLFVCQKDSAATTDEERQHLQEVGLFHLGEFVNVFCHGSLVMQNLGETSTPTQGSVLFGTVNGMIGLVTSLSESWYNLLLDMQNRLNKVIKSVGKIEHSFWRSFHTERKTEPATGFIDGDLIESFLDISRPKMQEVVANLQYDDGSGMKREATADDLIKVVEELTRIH

[4] = target: T2, IKZF1 (Homo sapiens, UniProt Q13422+Q96SW2); assay: Western-blot assay of substrate protein degradation in hPBMCs, IKZF1; format: cell-based; conditions: 24 hours of compound treatment, compounds tested at 50 nM and 500 nM (concentration of the table not stated)
T2 construct: endogenous in cells; host or cells: hPBMCs (Milecell Biotechnologies)
T2 sequence (Q13422 whole entry): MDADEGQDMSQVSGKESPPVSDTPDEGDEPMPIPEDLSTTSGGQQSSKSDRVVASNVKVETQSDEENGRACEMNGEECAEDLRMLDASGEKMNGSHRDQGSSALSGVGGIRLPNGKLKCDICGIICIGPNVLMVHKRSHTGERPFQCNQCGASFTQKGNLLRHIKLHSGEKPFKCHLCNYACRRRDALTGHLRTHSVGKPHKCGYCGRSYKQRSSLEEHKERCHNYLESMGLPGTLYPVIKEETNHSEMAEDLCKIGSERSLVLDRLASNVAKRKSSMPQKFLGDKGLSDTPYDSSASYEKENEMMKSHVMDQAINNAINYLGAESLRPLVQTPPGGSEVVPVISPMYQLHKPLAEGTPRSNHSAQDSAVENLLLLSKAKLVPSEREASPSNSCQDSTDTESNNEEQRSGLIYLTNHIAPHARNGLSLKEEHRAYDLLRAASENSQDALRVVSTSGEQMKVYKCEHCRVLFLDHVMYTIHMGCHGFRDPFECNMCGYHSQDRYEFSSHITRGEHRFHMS
T2 sequence (Q96SW2 whole entry): as the sequence (Q96SW2 whole entry) above
T2 sequence (Q16531 whole entry partner): as the sequence (Q16531 whole entry partner) above

[5] = test system: Human breast cancer cells (MDA-MB-231); assay: Tumor cell proliferation inhibition (CellTiter-Meiluncell Luminescent Cell Viability Assay), MDA-MB-231; conditions: MDA-MB-231, 96 h, read-out: inhibitory activity (IC50, nM) against tumor cells proliferation, MDA-MB-231
Experimental: (§1) The tumor cells used herein were cultured in a cell culture medium listed in table 2 at 37°C in an incubator with 5% CO2. Prior to experimentation, all cell lines used were correctly identified by STR profiling, and tested negative for mycoplasma contamination using a mycoplasma detection kit through routine screenings.
(§2) On the following day, the test compounds of the present disclosure were subjected to serial dilution. […] Subsequently, 0.5 µL of the test compound dilution was transferred into the 96-well plate containing the cells, with each well containing 100 µL of cell culture medium. […] Into the 96-well plate, the diluted test compounds and corresponding detection reagents were added, resulting in final test compound concentrations of 500 nM and 10 nM, respectively. The experimental procedure is described below using the diluted 2 µM test compound as an example.
(§3) After the cells were treated with the compounds of the present disclosure for a specified period (the treatment durations were shown in Table 3), the cell viability assay reagent was added to the culture medium according to the kit's instructions to determine cell viability. […] All controls were treated using the same procedure as the compounds of the present disclosure. The growth inhibition curves for the compounds of the present disclosure were plotted using Prism GraphPad software, and the IC50 values were calculated therefrom.

[6] = test system: MM.1R; assay: Tumor cell proliferation inhibition (CellTiter-Meiluncell Luminescent Cell Viability Assay), MM.1R; conditions: Homo sapiens, 96 h, read-out: inhibitory activity (IC50, nM) against tumor cells proliferation, MM.1R
Experimental: as §1, §2, §3

[7] = target: T3, IKZF2 (Homo sapiens, UniProt Q96SW2+Q9UKS7); assay: Western-blot assay of substrate protein degradation in hPBMCs, IKZF2; format: cell-based; conditions: 24 hours of compound treatment, compounds tested at 50 nM and 500 nM (concentration of the table not stated)
T3 construct: endogenous in cells; host or cells: hPBMCs (Milecell Biotechnologies)
T3 sequence (Q9UKS7 whole entry): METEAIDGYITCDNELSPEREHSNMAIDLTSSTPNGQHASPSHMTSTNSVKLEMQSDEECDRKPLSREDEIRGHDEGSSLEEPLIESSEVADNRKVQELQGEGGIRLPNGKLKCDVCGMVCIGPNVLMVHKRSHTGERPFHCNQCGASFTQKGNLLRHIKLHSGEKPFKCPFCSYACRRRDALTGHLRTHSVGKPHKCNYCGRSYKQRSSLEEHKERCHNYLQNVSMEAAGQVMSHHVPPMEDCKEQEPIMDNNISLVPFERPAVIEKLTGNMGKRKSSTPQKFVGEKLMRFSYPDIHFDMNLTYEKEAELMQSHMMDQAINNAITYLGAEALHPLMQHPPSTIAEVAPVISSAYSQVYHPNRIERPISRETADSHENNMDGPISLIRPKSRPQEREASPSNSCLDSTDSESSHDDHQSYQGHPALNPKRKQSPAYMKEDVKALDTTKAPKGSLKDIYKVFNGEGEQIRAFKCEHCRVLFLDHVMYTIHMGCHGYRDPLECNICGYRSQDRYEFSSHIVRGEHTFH
T3 sequence (Q96SW2 whole entry): as the sequence (Q96SW2 whole entry) above
T3 sequence (Q16531 whole entry partner): as the sequence (Q16531 whole entry partner) above

[8] = target: T4, WEE1 (Homo sapiens, UniProt P30291+Q96SW2); assay: Western-blot assay of substrate protein degradation in hPBMCs, WEE1; format: cell-based; conditions: 24 hours of compound treatment, compounds tested at 50 nM and 500 nM (concentration of the table not stated)
T4 construct: endogenous in cells; host or cells: hPBMCs (Milecell Biotechnologies)

[9] = target: T5, CK1α (Homo sapiens, UniProt P48729+Q96SW2); assay: Western-blot assay of substrate protein degradation in hPBMCs, CK1α; format: cell-based; conditions: 24 hours of compound treatment, compounds tested at 50 nM and 500 nM (concentration of the table not stated)
T5 construct: endogenous in cells; host or cells: hPBMCs (Milecell Biotechnologies)
T5 sequence (P48729 whole entry): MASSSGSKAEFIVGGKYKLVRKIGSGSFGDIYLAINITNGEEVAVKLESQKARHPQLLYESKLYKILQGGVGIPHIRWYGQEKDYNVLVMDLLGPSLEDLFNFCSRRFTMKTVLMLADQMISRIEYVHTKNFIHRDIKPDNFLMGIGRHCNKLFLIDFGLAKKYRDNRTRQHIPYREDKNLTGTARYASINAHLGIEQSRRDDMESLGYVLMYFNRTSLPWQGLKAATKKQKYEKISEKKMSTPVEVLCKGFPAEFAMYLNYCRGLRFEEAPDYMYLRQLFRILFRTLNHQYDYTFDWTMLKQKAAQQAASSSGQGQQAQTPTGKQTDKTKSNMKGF
T5 sequence (Q96SW2 whole entry): as the sequence (Q96SW2 whole entry) above
T5 sequence (Q16531 whole entry partner): as the sequence (Q16531 whole entry partner) above

[10] = test system: CAL-62; assay: Tumor cell proliferation inhibition (CellTiter-Meiluncell Luminescent Cell Viability Assay), CAL-62; conditions: Homo sapiens, CAL-62, 96 h, read-out: inhibitory activity (IC50, nM) against tumor cells proliferation, CAL-62
Experimental: as §1, §2, §3

[11] = test system: NCI-H1975; assay: Tumor cell proliferation inhibition (CellTiter-Meiluncell Luminescent Cell Viability Assay), NCI-H1975; conditions: Homo sapiens, NCI-H1975, 96 h, read-out: inhibitory activity (IC50, nM) against tumor cells proliferation, H1975
Experimental: as §1, §2, §3

[12] = target: T6, human Cereblon WT GST-tagged protein (Homo sapiens, UniProt Q96SW2); assay: CRBN-binding affinity by HTRF (CEREBLON BINDING kit); conditions: HTRF inhibitory activity, CEREBLON BINDING kit; read-out: HTRF IC50
T6 construct: purchased CISBIO 64BDCRBNPEH
T6 sequence (Q96SW2 whole entry): as the sequence (Q96SW2 whole entry) above

[13] = target: T7, GSPT1 (Homo sapiens, UniProt P15170+Q96SW2); assay: Western-blot assay of substrate protein degradation in hPBMCs, GSPT1; format: cell-based; conditions: 24 hours of compound treatment, compounds tested at 50 nM and 500 nM (concentration of the table not stated)
T7 construct: endogenous in cells; host or cells: hPBMCs (Milecell Biotechnologies)
T7 sequence (P15170 whole entry): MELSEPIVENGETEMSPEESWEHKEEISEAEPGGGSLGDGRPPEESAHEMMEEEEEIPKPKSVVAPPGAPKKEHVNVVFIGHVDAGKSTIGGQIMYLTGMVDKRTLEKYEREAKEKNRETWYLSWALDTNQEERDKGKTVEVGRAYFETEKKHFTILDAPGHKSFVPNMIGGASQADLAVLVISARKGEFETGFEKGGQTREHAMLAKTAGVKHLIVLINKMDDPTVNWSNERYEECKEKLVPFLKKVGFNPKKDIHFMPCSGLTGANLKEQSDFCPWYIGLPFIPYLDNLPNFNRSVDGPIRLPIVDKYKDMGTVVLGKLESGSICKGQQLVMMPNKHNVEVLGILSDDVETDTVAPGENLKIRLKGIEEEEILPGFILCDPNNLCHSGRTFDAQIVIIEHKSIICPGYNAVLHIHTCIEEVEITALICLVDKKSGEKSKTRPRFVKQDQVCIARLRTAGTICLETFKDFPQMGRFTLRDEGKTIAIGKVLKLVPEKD
T7 sequence (Q96SW2 whole entry): as the sequence (Q96SW2 whole entry) above
T7 sequence (Q16531 whole entry partner): as the sequence (Q16531 whole entry partner) above

| IC50 [1] [nM] | IC50 [2] [nM] | IC50 [5] [nM] | IC50 [6] [nM] | IC50 [10] [nM] | IC50 [11] [nM] | IC50 [12] [nM] | Compound | IKZF3 substrate protein remaining % [3] | IKZF 1 substrate protein remaining % [4] | IKZF2 substrate protein remaining % [7] | Weel substrate protein remaining % [8] | CK1a substrate protein remaining % [9] | GSPT1 substrate protein remaining % [13] |
| --- | --- | --- | --- | --- | --- | --- | --- | --- | --- | --- | --- | --- | --- |
| 1 to 5 | < 1 | 10 to 50 | 1 to 5 | 1 to 5 | 5 to 10 | 500 to 1000 | O=C1CCC(N2Cc3cc(CN4CCC(c5cccc(Cl)c5Cl)CC4)ccc3C2=O)C(=O)N1 (stereo not drawn) [GT-04551, 3-(5-((4-(2,3-dichlorophenyl)piperidin-1-yl)methyl)-1-oxoisoindolin-2-yl)piperidine-2,6-dione] | A (0% ≤ substrate protein remaining % ≤ 80%) | A (0% ≤ substrate protein remaining % ≤ 80%) | A (0% ≤ substrate protein remaining % ≤ 80%) | A (0% ≤ substrate protein remaining % ≤ 80%) | A (0% ≤ substrate protein remaining % ≤ 80%) | A (0% ≤ substrate protein remaining % ≤ 80%) |
| 1 to 5 | 1 to 5 | 50 to 100 | 5 to 10 | 5 to 10 | 10 to 50 | 1000 to 1500 | O=C1CCC(N2Cc3cc(CN4CCC(c5cccc(F)c5F)CC4)ccc3C2=O)C(=O)N1 (stereo not drawn) [GT-04552, 3-(5-((4-(2,3-difluorophenyl)piperidin-1-yl)methyl)-1-oxoisoindolin-2-yl)piperidine-2,6-dione] | A (0% ≤ substrate protein remaining % ≤ 80%) | A (0% ≤ substrate protein remaining % ≤ 80%) | A (0% ≤ substrate protein remaining % ≤ 80%) | A (0% ≤ substrate protein remaining % ≤ 80%) | A (0% ≤ substrate protein remaining % ≤ 80%) | A (0% ≤ substrate protein remaining % ≤ 80%) |
| 1 to 5 | 1 to 5 | 10 to 50 | 1 to 5 | 1 to 5 | 10 to 50 | 1000 to 1500 | O=C1CCC(N2Cc3cc(CN4CCC(c5cccc(F)c5Cl)CC4)ccc3C2=O)C(=O)N1 (stereo not drawn) [GT-04553, 3-(5-((4-(2-chloro-3-fluorophenyl)piperidin-1-yl)methyl)-1-oxoisoindolin-2-yl)piperidine-2,6-dione] | A (0% ≤ substrate protein remaining % ≤ 80%) | A (0% ≤ substrate protein remaining % ≤ 80%) | A (0% ≤ substrate protein remaining % ≤ 80%) | A (0% ≤ substrate protein remaining % ≤ 80%) | A (0% ≤ substrate protein remaining % ≤ 80%) | A (0% ≤ substrate protein remaining % ≤ 80%) |

Further lines, the compound ahead of its results:

| Compound | IC50 [1] [nM] | IC50 [2] [nM] | IC50 [5] [nM] | IC50 [6] [nM] | IC50 [10] [nM] | IC50 [11] [nM] | IC50 [12] [nM] | IKZF3 substrate protein remaining % [3] | IKZF 1 substrate protein remaining % [4] | IKZF2 substrate protein remaining % [7] | Weel substrate protein remaining % [8] | CK1a substrate protein remaining % [9] | GSPT1 substrate protein remaining % [13] |
| --- | --- | --- | --- | --- | --- | --- | --- | --- | --- | --- | --- | --- | --- |
| O=C1CCC(N2Cc3cc(CN4CCN(c5cc(Cl)c(Cl)cn5)CC4)ccc3C2=O)C(=O)N1 (stereo not drawn) [GT-04533, 3-(5-((4-(4,5-dichloropyridin-2-yl)piperazin-1-yl)methyl)-1-oxoisoindolin-2-yl)piperidine-2,6-dione] | 1 to 5 | 1 to 5 | 50 to 100 | 1 to 5 | 5 to 10 | 50 to 100 | 500 to 1000 | A (0% ≤ substrate protein remaining % ≤ 80%) | A (0% ≤ substrate protein remaining % ≤ 80%) | A (0% ≤ substrate protein remaining % ≤ 80%) | A (0% ≤ substrate protein remaining % ≤ 80%) | A (0% ≤ substrate protein remaining % ≤ 80%) | A (0% ≤ substrate protein remaining % ≤ 80%) |
| Cc1cc(N2CCN(Cc3ccc4c(c3)CN(C3CCC(=O)NC3=O)C4=O)CC2)cs1 (stereo not drawn) [GT-04549, 3-(5-((4-(5-methylthiophen-3-yl)piperazin-1-yl)methyl)-1-oxoisoindolin-2-yl)piperidine-2,6-dione] | 5 to 10 | 5 to 10 | 100 to 500 | 100 to 500 | 10 to 50 | 100 to 500 | 500 to 1000 | A (0% ≤ substrate protein remaining % ≤ 80%) | A (0% ≤ substrate protein remaining % ≤ 80%) | A (0% ≤ substrate protein remaining % ≤ 80%) | A (0% ≤ substrate protein remaining % ≤ 80%) | A (0% ≤ substrate protein remaining % ≤ 80%) | A (0% ≤ substrate protein remaining % ≤ 80%) |
| O=C1CCC(N2Cc3cc(CN4CC=C(c5cccc(Cl)c5Cl)CC4)ccc3C2=O)C(=O)N1 (stereo not drawn) [GT-04550, 3-(5-((4-(2,3-dichlorophenyl)-3,6-dihydropyridin-1(2H)-yl)methyl)-1-oxoisoindolin-2-yl)piperidine-2,6-dione] | < 1 | < 1 | 1 to 5 | < 1 | < 1 | 1 to 5 | < 500 | A (0% ≤ substrate protein remaining % ≤ 80%) | A (0% ≤ substrate protein remaining % ≤ 80%) | A (0% ≤ substrate protein remaining % ≤ 80%) | A (0% ≤ substrate protein remaining % ≤ 80%) | A (0% ≤ substrate protein remaining % ≤ 80%) | A (0% ≤ substrate protein remaining % ≤ 80%) |
| O=C1CCC(N2Cc3cc(CN4CC=C(c5cccc(F)c5Cl)CC4)ccc3C2=O)C(=O)N1 (stereo not drawn) [GT-04554, 3-(5-((4-(2-chloro-3-fluorophenyl)-3,6-dihydropyridin-1(2H)-yl)methyl)-1-oxoisoindolin-2-yl)piperidine-2,6-dione] | < 1 | < 1 | 1 to 5 | < 1 | < 1 | 1 to 5 | 500 to 1000 | A (0% ≤ substrate protein remaining % ≤ 80%) | A (0% ≤ substrate protein remaining % ≤ 80%) | A (0% ≤ substrate protein remaining % ≤ 80%) | A (0% ≤ substrate protein remaining % ≤ 80%) | A (0% ≤ substrate protein remaining % ≤ 80%) | A (0% ≤ substrate protein remaining % ≤ 80%) |
| O=C1CCC(N2Cc3cc(CN4CC=C(c5ccnc(F)c5F)CC4)ccc3C2=O)C(=O)N1 (stereo not drawn) [GT-04555, 3-(5-((2',3'-difluoro-3,6-dihydro-[4,4'-bipyridin]-1(2H)-yl)methyl)-1-oxoisoindolin-2-yl)piperidine-2,6-dione] | 10 to 50 | 5 to 10 | 500 to 1000 | 5 to 10 | 10 to 50 | 100 to 500 | 500 to 1000 | A (0% ≤ substrate protein remaining % ≤ 80%) | A (0% ≤ substrate protein remaining % ≤ 80%) | A (0% ≤ substrate protein remaining % ≤ 80%) | A (0% ≤ substrate protein remaining % ≤ 80%) | A (0% ≤ substrate protein remaining % ≤ 80%) | A (0% ≤ substrate protein remaining % ≤ 80%) |
| O=C1CCC(N2Cc3cc(CN4CC=C(c5cncc(Cl)c5Cl)CC4)ccc3C2=O)C(=O)N1 (stereo not drawn) [GT-04558, 3-(5-((4,5-dichloro-3',6'-dihydro-[3,4'-bipyridin]-1'(2'H)-yl)methyl)-1-oxoisoindolin-2-yl)piperidine-2,6-dione] | 1 to 5 | < 1 | 5 to 10 | < 1 | 1 to 5 | 5 to 10 | < 500 | A (0% ≤ substrate protein remaining % ≤ 80%) | A (0% ≤ substrate protein remaining % ≤ 80%) | A (0% ≤ substrate protein remaining % ≤ 80%) | A (0% ≤ substrate protein remaining % ≤ 80%) | A (0% ≤ substrate protein remaining % ≤ 80%) | A (0% ≤ substrate protein remaining % ≤ 80%) |
